Experimental data: paper PMC5627009, “Cyclotides Isolated from an Ipecac Root Extract Antagonize the Corticotropin Releasing Factor Type 1 Receptor” (Frontiers in Pharmacology, 2017)

Assays:
human CRF1R [1] = target: T1, human CRF1R (Homo sapiens, UniProt P34998); test: cAMP accumulation assay at CRF1R (LANCE Ultra cAMP); assay type: cell-based
T1 construct: expressed in transfected cells; host or cells: HEK293
T1 sequence (P34998 24-415): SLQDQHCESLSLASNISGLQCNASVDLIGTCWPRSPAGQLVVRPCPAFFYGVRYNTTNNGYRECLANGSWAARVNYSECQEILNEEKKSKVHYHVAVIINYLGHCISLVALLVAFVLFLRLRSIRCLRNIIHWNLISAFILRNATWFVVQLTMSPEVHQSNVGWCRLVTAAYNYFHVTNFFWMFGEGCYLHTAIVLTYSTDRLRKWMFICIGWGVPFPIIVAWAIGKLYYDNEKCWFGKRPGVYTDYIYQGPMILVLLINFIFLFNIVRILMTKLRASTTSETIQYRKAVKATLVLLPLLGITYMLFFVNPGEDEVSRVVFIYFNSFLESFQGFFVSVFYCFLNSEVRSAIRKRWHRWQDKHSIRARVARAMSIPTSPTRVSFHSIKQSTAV
Procedure: (§1) Receptor-mediated cAMP accumulation was measured in HEK293 cells transiently transfected with the human CRF1R (with C-terminal GFP tag) using the LANCE® Ultra cAMP Detection kit (PerkinElmer, Waltham, MA, United States). To prepare for experiments, HEK293 cells were grown to confluence in a 6-well plate, followed by transfection with 2.5 μg of plasmid DNA per well using the Lipofectamine® 2000 transfection reagent (Thermo Fisher Scientific). After 4–6 h post-transfection, the cell media was replaced, followed by dissociation of cells via trituration and division of the cell suspension to avoid overcrowding over the subsequent 48 h of incubation at 37°C and 5% CO2. On the day of assay, cells were dissociated with phosphate buffered saline- (PBS-)EDTA solution (137 mM NaCl, 2.7 mM KCl, 10 mM Na2HPO4, 1.8 mM KH2PO4, 1 mM EDTA) and re-suspended in stimulation buffer (1.26 mM CaCl2, 0.49 mM MgCl2, 0.41 mM MgSO4, 5.33 mM KCl, 0.44 mM KH2PO4, 4.17 mM NaHCO3, 138 mM NaCl, 0.34 mM Na2HPO4, 5.56 mM D-glucose, 5 mM HEPES, 0.5 mM IBMX, 0.1% BSA; pH 7.4). Stimulation of cAMP accumulation via the human CRF1R and the human V2R used 500 cells and 300 cells (expressing these receptors) per well, respectively, in 384-well white Cellstar® plates (Greiner Bio-One, Kremsmuenster, Austria). Cells were incubated with the respective cognate receptor agonist peptides, in the absence and presence of cyclotide, for 30 min at 23°C in a final volume of 10 μL of stimulation buffer. Termination of cAMP accumulation was performed with the addition of 5 μL of Eu-cAMP tracer solution and 5 μL of ULight-anti-cAMP antibody solution, each prepared in detection buffer, followed by incubation of the plate for 1 h at 23°C with the lid on. After incubation, the plate was read in a Flexstation 3 plate reader (Molecular Devices, Sunnyvale, CA, United States).
Data from cellular assays were analyzed using GraphPad Prism 7.01 (GraphPad Software, San Diego, CA, United States). Concentration-response curve data were fitted to the three-parameter logistic equation to derive estimates of potency (LogIC50, luciferase; LogEC50, cAMP) and efficacy (Emax), relative to the maximal agonist control response. CRF LogEC50 values in the absence and presence of caripe 8 were statistically compared via extra sum-of-squares F test analysis. Other statistical analyses were performed as appropriate using one-way analysis of variance (ANOVA) with Bonferroni’s post-test, and significance taken as p < 0.05.

human V2R = test: cAMP accumulation assay at vasopressin V2 receptor (LANCE Ultra cAMP); assay type: cell-based; conditions: HEK293 transiently expressing human V2R, caripe 8 26 nM & 260 nM, 30 min, 23°C, five or more experiments in triplicate, not statistically different (One-way ANOVA)
Procedure: as §1, with “Stimulation of cAMP accumulation via the human CRF1R and the human V2R used 500 cells and 300 cells (expressing these receptors) per well, respectively, in 384-well white Cellstar® plates (Greiner Bio-One, Kremsmuenster, Austria). Cells were incubated with the respective cognate receptor agonist peptides, in the absence and presence of cyclotide, for 30 min at 23°C in a final volume of 10 μL of stimulation buffer. Termination of cAMP accumulation was performed with the addition of 5 μL of Eu-cAMP tracer solution and 5 μL of ULight-anti-cAMP antibody solution, each prepared in detection buffer, followed by incubation of the plate for 1 h at 23°C with the lid on.” left out
Data from cellular assays were analyzed using GraphPad Prism 7.01 (GraphPad Software, San Diego, CA, United States). […]

human CRF1R [2] = target: T1, human CRF1R; test: CRE luciferase reporter gene assay (CRF1R antagonism/agonism); assay type: cell-based; conditions: fraction F, relative to the other identified cyclotides
Procedure: The ipecac extract was tested for its modulating effect on CRF1R signaling using a cell-based luciferase reporter assay. HEK293 cells transiently transfected with an C-terminally GFP-tagged human CRF1R and a luciferase-coupled cAMP response element (CRE) were stimulated with varying concentrations of ipecac extract (0.01–50 μg mL^-1) in the presence and absence of 50 nM endogenous corticotropin-releasing factor (CRF) ligand. Concentration-dependent inhibition of receptor signaling was determined by measuring luciferase induction and accounting for the fluorescence of receptor-positive cells. The amount of luminescence of the control samples incubated with hormone alone was defined as 100% efficacy (Figure 1E). The inhibitory potency of the corresponding cyclotide-containing ipecac extract was measured and normalized relative to the efficacy of the control. […] The inhibitory potency of the ipecac extract to antagonize CRF1R signaling was determined as half-maximal concentration (IC50) as 2.0 μg mL^-1 (Figure 1F). […]
After confirming the presence of cyclotides in the ipecac extract, we aimed to isolate the cyclotides responsible for CRF1R antagonism using a bioassay-guided fraction approach. […] All fractions were analyzed by analytical HPLC and MALDI-TOF MS. […] Fractions C and D were determined to contain at least two cyclotides (Figures 4B,C and Supplementary Figure 1). […]

oxytocin receptor = conditions: ref Koehbach et al. (2013b); cited from earlier work
Text: (§2) Cyclotides are plant-derived cyclic peptides that are currently of great interest as lead molecules and peptide scaffolds for pharmaceutical drug development ([Thell et al., 2016]; [Craik and Du, 2017]). They were first isolated from O. affinis (Rubiaceae), a plant used as herbal preparation (‘kalata-kalata’) in traditional Congolese medicine for its uterotonic properties ([Gran, 1970]; [Craik et al., 1999]; [Gran et al., 2000]). Evidence-based proof of the plant’s traditional use in childbirth and post-partum care was provided in 2013; [Koehbach et al. (2013b)] isolated the cyclotide kalata B ...

vasopressin V1a receptor = conditions: ref Koehbach et al. (2013b); cited from earlier work
Text: as §2

Row | Substance | fold reduction of CRF potency (human CRF1R [1]; 260 nM caripe 8, CRF concentration-response, HEK293 with human CRF1R, 30 min, 23°C, pH 7.4, six independent experiments in triplicate) | effect on CRF maximal response (human CRF1R [1]; 260 nM caripe 8, CRF concentration-response, six experiments in triplicate) | difference of CRF LogEC50 in absence and presence of caripe 8 (human CRF1R [1]; 260 nM caripe 8, extra sum-of-squares F test, six experiments in triplicate) | inhibition of CRF1R-mediated cAMP response to CRF (human CRF1R [1]; 2.6, 26 and 260 nM cyclotide with an EC50 / approximate EC80 (Fig. 6A) of CRF, 30 min, 23°C, three experiments in triplicate) | effect on cAMP accumulation in combination with submaximal forskolin (human CRF1R [1]; HEK293, human CRF1R, submaximal agonist concentrations of forskolin) | intrinsic activity in the cAMP assay (human CRF1R [1]; HEK293 transiently expressing human CRF1R, cyclotide alone, 30 min, 23°C, pH 7.4) | mode of antagonism at CRF1R (human CRF1R [1]; suggested from modest and limited antagonism) | limit of concentration-dependent inhibition of CRF-mediated cAMP response (data not shown) (human CRF1R [1]; titration with CRF, data not shown) | effect on arginine-vasopressin-stimulated cAMP accumulation (human V2R; AVP 50 pM) | effect on forskolin-stimulated cAMP accumulation (human V2R; forskolin 300 nM) | relative effectiveness as inhibitor of CRF1R-mediated luciferase activity (human CRF1R [2]) | affinity and potency at oxytocin receptor (oxytocin receptor) | mode of action at oxytocin receptor (oxytocin receptor) | affinity and potency at vasopressin V1a receptor (vasopressin V1a receptor) | mode of action at vasopressin V1a receptor (vasopressin V1a receptor)
1 | GVIPCGESCVFIPCITAAI–GCSCKKKVCYRN (bicyclic or more) [caripe 8, natural bracelet cyclotide isolated from fraction F of ipecac root extract] | approximately 4.5 fold | lack of effect | significantly different from each other (p < 0.05) | modest concentration-dependent inhibition | no effect | did not exhibit any intrinsic activity | does not interact competitively with the CRF binding site | observed to reach a threshold | not altered | not altered | the most effective inhibitor | – | – | – | –
2 | kalata B7 | – | – | – | – | – | – | – | – | – | – | – | moderate affinity and potency (μM-concentration range) | partial agonist | moderate affinity and potency (μM-concentration range) | partial agonist
